# Data reported in patent publication US9079901B2, “Fused heterocyclic compounds as ion channel modulators” (Gilead Sciences, Inc., priority 2010, dated 2015).
# Biological target: wild-type human cardiac sodium channel, hNav1.5 (late sodium current) in HEK293 cells (Homo sapiens, UniProt Q14524)
# Test: Late INa screening assay (automated whole-cell patch clamp, PatchXpress)
# Assay type: cell-based
# Conditions: HEK293, compound at 1 μM; late INa generated with 10 μM Tefluthrin (or 50 nM ATX II); HEK293 hNav1.5; read-out: Late INa 1 μM (percent block of late INa)
# In short: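 hNav1.5-expressing HEK293 cells (no β subunits) were recorded by automated whole-cell patch clamp at 24–27 °C with CsF-based internal solution. Late current was induced by 10 μM tefluthrin (or 50 nM ATX II) and evoked by 250 ms steps from −120 to −20 mV at 0.1 Hz. Compounds, typically 10 μM, were applied in three additions over 7–8 min; mean current at 225–250 ms, normalised to 0Na baseline, gave percent block.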
# Sequence of wild-type human cardiac sodium channel, hNav1.5 (late sodium current) in HEK293 cells (Q14524 whole entry): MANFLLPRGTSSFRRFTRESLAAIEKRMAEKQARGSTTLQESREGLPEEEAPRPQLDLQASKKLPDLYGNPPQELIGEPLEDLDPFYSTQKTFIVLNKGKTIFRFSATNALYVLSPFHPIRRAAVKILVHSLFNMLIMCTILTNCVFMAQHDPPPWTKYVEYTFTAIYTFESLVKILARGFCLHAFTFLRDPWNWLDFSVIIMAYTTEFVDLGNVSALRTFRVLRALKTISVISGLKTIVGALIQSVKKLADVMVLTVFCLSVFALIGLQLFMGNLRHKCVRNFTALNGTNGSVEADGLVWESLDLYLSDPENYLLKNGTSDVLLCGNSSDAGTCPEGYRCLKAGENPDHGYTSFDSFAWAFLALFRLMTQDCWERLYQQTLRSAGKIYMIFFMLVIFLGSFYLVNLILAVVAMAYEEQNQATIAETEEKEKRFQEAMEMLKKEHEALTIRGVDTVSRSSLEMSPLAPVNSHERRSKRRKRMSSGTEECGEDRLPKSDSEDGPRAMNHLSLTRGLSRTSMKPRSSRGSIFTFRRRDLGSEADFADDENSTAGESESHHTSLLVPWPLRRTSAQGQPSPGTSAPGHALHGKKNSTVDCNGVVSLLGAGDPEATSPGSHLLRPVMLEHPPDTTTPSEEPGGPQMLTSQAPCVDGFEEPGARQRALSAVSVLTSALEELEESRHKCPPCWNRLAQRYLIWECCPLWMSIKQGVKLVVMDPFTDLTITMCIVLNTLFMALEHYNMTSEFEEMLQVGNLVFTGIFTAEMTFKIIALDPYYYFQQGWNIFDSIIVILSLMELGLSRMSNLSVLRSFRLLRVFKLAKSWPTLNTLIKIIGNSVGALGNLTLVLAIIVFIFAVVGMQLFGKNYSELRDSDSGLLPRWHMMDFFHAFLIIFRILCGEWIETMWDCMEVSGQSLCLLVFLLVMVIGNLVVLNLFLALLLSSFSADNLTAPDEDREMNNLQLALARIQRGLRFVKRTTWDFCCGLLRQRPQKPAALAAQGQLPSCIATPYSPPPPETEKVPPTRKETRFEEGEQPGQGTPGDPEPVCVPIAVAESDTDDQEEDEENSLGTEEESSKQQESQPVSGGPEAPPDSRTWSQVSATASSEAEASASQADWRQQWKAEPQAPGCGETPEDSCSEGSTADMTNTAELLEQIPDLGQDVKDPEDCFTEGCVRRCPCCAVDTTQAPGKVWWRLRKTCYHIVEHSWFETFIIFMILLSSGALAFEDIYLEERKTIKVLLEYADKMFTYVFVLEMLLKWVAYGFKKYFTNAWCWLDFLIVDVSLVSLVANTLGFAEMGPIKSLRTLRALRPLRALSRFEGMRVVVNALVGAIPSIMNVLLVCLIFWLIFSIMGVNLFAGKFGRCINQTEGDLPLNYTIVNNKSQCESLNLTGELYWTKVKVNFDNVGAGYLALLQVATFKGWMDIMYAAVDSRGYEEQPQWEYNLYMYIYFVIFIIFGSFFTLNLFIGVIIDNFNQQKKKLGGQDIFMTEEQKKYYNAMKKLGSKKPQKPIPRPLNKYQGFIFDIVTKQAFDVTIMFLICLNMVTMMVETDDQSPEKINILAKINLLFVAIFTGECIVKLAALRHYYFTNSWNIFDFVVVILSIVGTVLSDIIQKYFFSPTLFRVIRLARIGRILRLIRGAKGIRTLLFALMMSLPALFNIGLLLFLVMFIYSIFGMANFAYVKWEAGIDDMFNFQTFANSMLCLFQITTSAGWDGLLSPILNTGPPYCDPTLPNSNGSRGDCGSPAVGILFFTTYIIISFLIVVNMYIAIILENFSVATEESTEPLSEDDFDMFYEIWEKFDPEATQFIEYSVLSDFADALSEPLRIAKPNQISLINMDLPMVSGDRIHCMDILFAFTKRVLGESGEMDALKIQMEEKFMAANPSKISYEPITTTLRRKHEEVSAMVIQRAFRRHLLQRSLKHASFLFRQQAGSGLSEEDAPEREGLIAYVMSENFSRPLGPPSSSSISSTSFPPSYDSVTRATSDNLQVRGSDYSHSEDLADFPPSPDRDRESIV
row,SMILES,inhibition at 1 µM [%]
1,"COc1cc(F)ccc1OCC(O)Cn1nc2ccc(-c3ccc(OC(F)(F)F)cc3)cn2c1=O (centres unmarked) [compound 98, 2-(3-(4-fluoro-2-methoxyphenoxy)-2-hydroxypropyl)-6-(4-(trifluoromethoxy)phenyl)-[1,2,4]triazolo[4,3-a]pyridin-3(2H)-one]",23.2
2,"CCOc1ccccc1OCC(O)Cn1nc2ccc(-c3ccc(OC(F)(F)F)cc3)cn2c1=O (centres unmarked) [compound 99, 2-(3-(2-ethoxyphenoxy)-2-hydroxypropyl)-6-(4-(trifluoromethoxy)phenyl)-[1,2,4]triazolo[4,3-a]pyridin-3(2H)-one]",36.5
3,"O=c1n(CC(O)COc2ccccc2-c2ccccc2)nc2ccc(-c3ccc(OC(F)(F)F)cc3)cn12 (centres unmarked) [compound 100, 2-(3-(biphenyl-2-yloxy)-2-hydroxypropyl)-6-(4-(trifluoromethoxy)phenyl)-[1,2,4]triazolo[4,3-a]pyridin-3(2H)-one]",18
4,"N#Cc1ccccc1OCC(O)Cn1nc2ccc(-c3ccc(OC(F)(F)F)cc3)cn2c1=O (centres unmarked) [compound 101, 2-(2-hydroxy-3-(3-oxo-6-(4-(trifluoromethoxy)phenyl)-[1,2,4]triazolo[4,3-a]pyridin-2(3H)-yl)propoxy)benzonitrile]",11.7
5,"CC(Cn1nc2ccc(-c3ccc(OC(F)(F)F)cc3)cn2c1=O)c1ccccn1 (centres unmarked) [compound 102, 2-(2-(pyridin-2-yl)propyl)-6-(4-(trifluoromethoxy)phenyl)-[1,2,4]triazolo[4,3-a]pyridin-3(2H)-one]",36.2
6,"COc1cccc(CCn2nc3ccc(-c4ccc(OC(F)(F)F)cc4)cn3c2=O)n1 [compound 103, 2-(2-(6-methoxypyridin-2-yl)ethyl)-6-(4-(trifluoromethoxy)phenyl)-[1,2,4]triazolo[4,3-a]pyridin-3(2H)-one]",49.7
7,"COc1cc(F)ccc1OCC(Cn1nc2ccc(-c3ccc(OC(F)(F)F)cc3)cn2c1=O)OC (centres unmarked) [compound 104, 2-(3-(4-fluoro-2-methoxyphenoxy)-2-methoxypropyl)-6-(4-(trifluoromethoxy)phenyl)-[1,2,4]triazolo[4,3-a]pyridin-3(2H)-one]",41.5
8,"CCOC(COc1ccc(F)cc1OC)Cn1nc2ccc(-c3ccc(OC(F)(F)F)cc3)cn2c1=O (centres unmarked) [compound 105, 2-(2-ethoxy-3-(4-fluoro-2-methoxyphenoxy)propyl)-6-(4-(trifluoromethoxy)phenyl)-[1,2,4]triazolo[4,3-a]pyridin-3(2H)-one]",45
9,"CCOc1ccnc(OCCn2nc3ccc(-c4ccc(OC(F)(F)F)cc4)cn3c2=O)n1 [compound 106, 2-(2-(4-ethoxypyrimidin-2-yloxy)ethyl)-6-(4-(trifluoromethoxy)phenyl)-[1,2,4]triazolo[4,3-a]pyridin-3(2H)-one]",47.2
10,"Cc1nc2ccc(OCC(O)Cn3nc4ccc(-c5ccc(OC(F)(F)F)cc5)cn4c3=O)cc2s1 (centres unmarked) [compound 107, 2-(2-hydroxy-3-(2-methylbenzo[d]thiazol-6-yloxy)propyl)-6-(4-(trifluoromethoxy)phenyl)-[1,2,4]triazolo[4,3-a]pyridin-3(2H)-one]",22.4
11,"CC(C)Oc1ccccc1OCC(O)Cn1nc2ccc(-c3ccc(OC(F)(F)F)cc3)cn2c1=O (centres unmarked) [compound 108, 2-(2-hydroxy-3-(2-isopropoxyphenoxy)propyl)-6-(4-(trifluoromethoxy)phenyl)-[1,2,4]triazolo[4,3-a]pyridin-3(2H)-one]",41.5
12,"O=c1n(C2COCC2Oc2ncccn2)nc2ccc(-c3ccc(OC(F)(F)F)cc3)cn12 (centres unmarked) [compound 109, 2-(4-(pyrimidin-2-yloxy)tetrahydrofuran-3-yl)-6-(4-(trifluoromethoxy)phenyl)-[1,2,4]triazolo[4,3-a]pyridin-3(2H)-one]",12.9
13,"Cc1noc(Cn2nc3ccc(-c4ccc([Si](C)(C)C)cc4)cn3c2=O)n1 [compound 110, 2-((3-methyl-1,2,4-oxadiazol-5-yl)methyl)-6-(4-(trimethylsilyl)phenyl)-[1,2,4]triazolo[4,3-a]pyridin-3(2H)-one]",44.3
14,"O=c1n(CCc2ncccn2)nc2ccc(-c3ccc(OC(F)(F)F)cc3)cn12 [compound 111, 2-(2-(pyrimidin-2-yl)ethyl)-6-(4-(trifluoromethoxy)phenyl)-[1,2,4]triazolo[4,3-a]pyridin-3(2H)-one]",18.6
15,"O=C1C(Oc2ccccc2)CCN1CCn1nc2ccc(-c3ccc(OC(F)(F)F)cc3)cn2c1=O (centres unmarked) [compound 112, 2-(2-(2-oxo-3-phenoxypyrrolidin-1-yl)ethyl)-6-(4-(trifluoromethoxy)phenyl)-[1,2,4]triazolo[4,3-a]pyridin-3(2H)-one]",11.1
16,"O=c1n(CCc2ccncn2)nc2ccc(-c3ccc(OC(F)(F)F)cc3)cn12 [compound 113, 2-(2-(pyrimidin-4-yl)ethyl)-6-(4-(trifluoromethoxy)phenyl)-[1,2,4]triazolo[4,3-a]pyridin-3(2H)-one]",17.8

row,SMILES,inhibition at 1 µM [%]
1,"O=c1n(CCc2cnccn2)nc2ccc(-c3ccc(OC(F)(F)F)cc3)cn12 [compound 114, 2-(2-(pyrazin-2-yl)ethyl)-6-(4-(trifluoromethoxy)phenyl)-[1,2,4]triazolo[4,3-a]pyridin-3(2H)-one]",14.4
2,"O=c1n(CCOc2nccc(-c3ccccc3)n2)nc2ccc(-c3ccc(OC(F)(F)F)cc3)cn12 [compound 115, 2-(2-(4-phenylpyrimidin-2-yloxy)ethyl)-6-(4-(trifluoromethoxy)phenyl)-[1,2,4]triazolo[4,3-a]pyridin-3(2H)-one]",22.9
3,"COc1cnc(OCCn2nc3ccc(-c4ccc(OC(F)(F)F)cc4)cn3c2=O)nc1 [compound 116, 2-(2-(5-methoxypyrimidin-2-yloxy)ethyl)-6-(4-(trifluoromethoxy)phenyl)-[1,2,4]triazolo[4,3-a]pyridin-3(2H)-one]",31.3
4,"Cc1nccnc1CCn1nc2ccc(-c3ccc(OC(F)(F)F)cc3)cn2c1=O [compound 117, 2-(2-(3-methylpyrazin-2-yl)ethyl)-6-(4-(trifluoromethoxy)phenyl)-[1,2,4]triazolo[4,3-a]pyridin-3(2H)-one]",18.2
5,"COc1ccc(Br)c(CCn2nc3ccc(-c4ccc(OC(F)(F)F)cc4)cn3c2=O)n1 [compound 118, 2-(2-(3-bromo-6-methoxypyridin-2-yl)ethyl)-6-(4-(trifluoromethoxy)phenyl)-[1,2,4]triazolo[4,3-a]pyridin-3(2H)-one]",47.9
6,"O=c1n(CCCc2ccc(F)c(-c3ncco3)c2)nc2ccc(-c3ccc(OC(F)(F)F)cc3)cn12 [compound 119, 2-(3-(4-fluoro-3-(oxazol-2-yl)phenyl)propyl)-6-(4-(trifluoromethoxy)phenyl)-[1,2,4]triazolo[4,3-a]pyridin-3(2H)-one]",22
7,"O=c1n(CCOc2ncccn2)nc2ccc(-c3ccc(Oc4ccc(Cl)cc4)cc3)cn12 [compound 120, 6-(4-(4-chlorophenoxy)phenyl)-2-(2-(pyrimidin-2-yloxy)ethyl)-[1,2,4]triazolo[4,3-a]pyridin-3(2H)-one]",73.9
8,"O=c1n(CCCc2ccc(F)c(-c3cccnc3)c2)nc2ccc(-c3ccc(OC(F)(F)F)cc3)cn12 [compound 121, 2-(3-(4-fluoro-3-(pyridin-3-yl)phenyl)propyl)-6-(4-(trifluoromethoxy)phenyl)-[1,2,4]triazolo[4,3-a]pyridin-3(2H)-one]",13.1
9,"O=c1n(CCOc2ncccn2)nc2ccc(-c3ccc(Oc4ccc(F)cc4)cc3)cn12 [compound 122, 6-(4-(4-fluorophenoxy)phenyl)-2-(2-(pyrimidin-2-yloxy)ethyl)-[1,2,4]triazolo[4,3-a]pyridin-3(2H)-one]",58.5
10,"C[Si](C)(C)c1ccc(-c2ccc3nn(CCOc4ncccn4)c(=O)n3c2)cc1 [compound 123, 2-(2-(pyrimidin-2-yloxy)ethyl)-6-(4-(trimethylsilyl)phenyl)-[1,2,4]triazolo[4,3-a]pyridin-3(2H)-one]",38
11,"CCOC(COc1ccc2nc(C)sc2c1)Cn1nc2ccc(-c3ccc(OC(F)(F)F)cc3)cn2c1=O (centres unmarked) [compound 124, 2-(2-ethoxy-3-(2-methylbenzo[d]thiazol-6-yloxy)propyl)-6-(4-(trifluoromethoxy)phenyl)-[1,2,4]triazolo[4,3-a]pyridin-3(2H)-one]",31.2
12,"CCOc1ccnc(OC2COCC2n2nc3ccc(-c4ccc(OC(F)(F)F)cc4)cn3c2=O)n1 (centres unmarked) [compound 125, 2-(4-(4-ethoxypyrimidin-2-yloxy)tetrahydrofuran-3-yl)-6-(4-(trifluoromethoxy)phenyl)-[1,2,4]triazolo[4,3-a]pyridin-3(2H)-one]",14.1
13,"CN(C)c1nc(OCCn2nc3ccc(-c4ccc(OC(F)(F)F)cc4)cn3c2=O)ncc1F [compound 126, 2-(2-(4-(dimethylamino)-5-fluoropyrimidin-2-yloxy)ethyl)-6-(4-(trifluoromethoxy)phenyl)-[1,2,4]triazolo[4,3-a]pyridin-3(2H)-one]",32.6
14,"Cc1noc(Cn2nc3ccc(-c4cc(F)c(Oc5ccccc5)c(F)c4)cn3c2=O)n1 [compound 127, 6-(3,5-difluoro-4-phenoxyphenyl)-2-((3-methyl-1,2,4-oxadiazol-5-yl)methyl)-[1,2,4]triazolo[4,3-a]pyridin-3(2H)-one]",21.5
15,"COCc1nc(Cn2nc3ccc(-c4ccc(OC(F)(F)F)cc4)cn3c2=O)no1 [compound 128, 2-((5-(methoxymethyl)-1,2,4-oxadiazol-3-yl)methyl)-6-(4-(trifluoromethoxy)phenyl)-[1,2,4]triazolo[4,3-a]pyridin-3(2H)-one]",22

# Same assay, conditions: compound at 1 μM; late INa generated with 10 μM Tefluthrin (or 50 nM ATX II); HEK293 hNav1.5
row,SMILES,Late INa 1 μM (percent block of late INa) [%]
1,N#Cc1ccnc(OCCn2nc3ccc(-c4ccc(OC(F)(F)F)cc4)cn3c2=O)n1 [compound 129],16.1133
